{"source": "patent US20250108064A1", "about": "“PHOSPHATE PRODRUGS OF CANNABINOIDS” (priority 2021, published 2025)", "key": {"physchem": {"assay": "physchem", "format": "physicochemical", "conditions": "aqueous buffer, kinetic from dmso stock; nephelometry, PBS pH 7.0-7.3, 1% DMSO, 25° C., 90 min", "experimental": "General Experimental: Nephelometry experiments were performed using untreated Corning® Costar® 96-well black polystyrene plates with clear flat bottoms. Sample stock solutions and serial dilutions were prepared with DriSolv® DMSO purchased from MilliporeSigma. All 100-fold dilutions and replicate experiments were prepared using Gibco® Dulbecco's phosphate-buffered saline (DPBS, no calcium, no magnesium) with a pH range of 7.0-7.3 as aqueous media. […] Nephelometry data was obtained using a NEPHELOstar® microplate reader and processed with MARS data analysis software from BMG LabTech.\nProcedure for Nephelometry Experiments: Tested compounds were dissolved in 100% DMSO to make stock solutions of specified concentrations, ranging from 10 mM minimum up to 50 mM maximum. The sample then underwent serial dilution in a 96-well plate (Corning® Costar®). Well A1 of the plate contained 100% DMSO. […] Using a 12 channel multichannel pipette, 2.5 μL of sample from row A was transferred to each well in row B through row H of the plate. Next, 30 μL of PBS (pH=7.0-7.3) was added to row B through row H, providing each well with 32.5 μL. The plate was then incubated for 30 sec with shaking. Finally, 217.5 μL of PBS buffer was added to row B through row H, and the entire plate was incubated with shaking at 25° C. for 90 min. Note: The final volume of DMSO in actual experiments with PBS buffer was 1% throughout the plate. After 90 min, the 96-well plate was analyzed with a NEPHELOstar® instrument and the data was processed with MARS data analysis software."}, "[1]": {"assay": "Plasma stability assay (human plasma)", "format": "in vitro ADME", "conditions": "37° C., read-out: T½ in human plasma (converted)", "experimental": "General Experimental: Procaine and Procainamide were purchased from Sigma-Aldrich. Human plasma was obtained from BioIVT (Cat. No. […]2N) and 1X Dulbecco's PBS (pH 7.4, Gibco) was obtained from Thermos Fischer. Stock solutions were prepared in 100% DMSO, and suitable dilutions of target analytes were prepared in methanol for method development.\nProcedure for Plasma Stability Assay: Test compounds were dissolved in DMSO to make a stock solution of 10 mM and then diluted to 500 μM in buffer (or 70% MeOH). Human plasma was thawed at ambient temperature and is aliquoted ([…]) to a 1.5 mL Eppendorf tube in duplicates (A and B) for each compound. Plasma was incubated at 37° C. for 10 minutes in an incubator shaker at 150 rpm; the reaction was initiated by the addition of the test compound (6.0 μL) and vortex mixing. The total reaction volume was 1000 μL where the final organic solvent concentrations were 0.6% MeOH and 0.03% DMSO. The spiked plasma samples were incubated at 37° C. for 4 hrs. The reactions were terminated at time points 0, 15, 30, 60, 120, 180, and 240 min by taking a 100 μL aliquot from the test incubation mixture and immediately quenching it in ice-cold acetonitrile containing internal standard (150 μL with 2 μM ISTD), followed by a quick vortex mixing. In addition, matrix blank was prepared by adding acetonitrile solutions containing ISTD to plasma samples without any of the analytes or control compounds. Also, an additional tube was made to measure compound degradation in PBS buffer. The samples were centrifuged at 15000 rpm for 25 min at 4° C. The supernatant was transferred to an LC-MS vial for analysis by LC/MS-MS. Each time point was run in duplicates followed by in-between blank washes to avoid the carryover and to equilibrate the column. Half-life (T1/2) was calculated using the data obtained from LC-MS/MS and by plotting ln (% remaining of the parent prodrug) versus time and performing linear regression to determine slope. Slope=−k and T1/2=0.693/k for first-order kinetics.\nThese positive controls were run in parallel to test the systems for competency."}, "[2]": {"assay": "Liver microsome stability assay (MLM)", "format": "in vitro ADME", "conditions": "mouse, mouse liver microsomes, pH 7.4; 3 μM test compound, NADPH; read-out: T 1/2 in MLM", "experimental": "General Experimental: Human and mouse liver microsomes were purchased from Xenotech at 20 mg/mL. NADPH (Sigma-Aldrich) 10 mM stocks were prepared in deionized water.\nProcedure for Liver Microsome Stability Assay: Test compounds and positive controls were dissolved in 100% DMSO to make 10 mM stock solutions. Verapamil (Sigma-Aldrich) and diphenhydramine (Sigma-Aldrich) were used as positive controls for both human liver microsomes (HLM) and mouse liver microsomes (MLM). The 10 mM stock solutions of test and control compounds were further diluted in potassium phosphate buffer (100 mM, pH 7.4) to 500 μM to ensure that the organic solvent content was <0.2%. The liver microsome (HLM or MLM) assay was prepared in a 1.5 mL Eppendorf tube with a final volume of 1100 μL for duplicate runs. Each reaction contained phosphate buffer (928.4 μL), liver microsomes (55 μL), and test compound (6.6 μL of 500 μM), resulting in a final concentration of 3 μM for the test compound. The reaction was initiated with 110 μL of 10 mM NADPH. Aliquots (100 μL) were removed in duplicate at 0, 5, 10, 15, and 30 min and quenched in […] of 100% cold methanol which contained internal standard (ISTD: d5-7-ethoxy coumarin 2 μM). The aliquots were centrifuged at 12,000 g for 5 min, and the supernatant was transferred and placed in an LC-MS vial. Each time point was assessed by LC-MS/MS, and the area under the m/z curve (AUC), based on the MRM transition, was integrated w.r.t the ISTD. Positive controls were conducted at a final volume of 550 μL to enable a single run for each time point. Negative controls in the absence of NADPH were performed with the test and control compounds, respectively, at a final volume of 150 μL and measured at the most prolonged time point. Control compounds were processed and analyzed like test compounds. […] Half-life (T1/2) was calculated using the data obtained from LC-MS/MS and by plotting ln (% remaining of the parent prodrug) versus time and performing linear regression to determine slope. […]"}}, "data": [{"smiles": "C=C(C)[C@@H]1CCC(C)=C[C@H]1c1c(O)cc(CCCCC)cc1OC(=O)C1(OP(=O)(O)O)CC1.N.N", "note": "[7b, 1-((((1′R,2′R)-6-hydroxy-5′-methyl-4-pentyl-2′-(prop-1-en-2-yl)-1′,2′,3′,4′-tetrahydro-[1,1′-biphenyl]-2-yl)oxy)carbonyl)cyclopropyl phosphate di-ammonium salt]", "values": [{"measurement": "solubility", "setting": "physchem", "value": "> 500", "unit": "µM"}, {"measurement": "half-life", "setting": "[1]", "value": 5.3, "unit": "h"}, {"measurement": "half-life at 3 μM", "setting": "[2]", "value": 0.55, "unit": "h"}]}]}
